BindingDB's records for doi:10.1021/acs.jmedchem.1c01655 (University of California San Diego, 2022)

Biological target: T1, Carboxy-terminal domain RNA polymerase II polypeptide A small phosphatase 1 (Homo sapiens, UniProt Q9GZU7)
T1 sequence (Q9GZU7 whole entry): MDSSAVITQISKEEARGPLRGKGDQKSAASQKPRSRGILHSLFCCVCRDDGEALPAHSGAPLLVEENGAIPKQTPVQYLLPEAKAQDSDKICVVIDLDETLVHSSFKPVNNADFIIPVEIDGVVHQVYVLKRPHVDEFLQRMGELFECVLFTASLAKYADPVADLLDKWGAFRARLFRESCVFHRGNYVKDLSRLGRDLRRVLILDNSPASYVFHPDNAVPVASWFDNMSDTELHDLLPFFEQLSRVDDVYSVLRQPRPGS
Experiment: Inhibition of wild type human SCP1 using pNPP as substrate incubated for 0.5 to 18 hrs followed by substrate addition by absorbance based analysis

IC50: 220 µM
SMILES: O=C(C1=CC2=C(CCC2)S1(=O)=O)N1CCN(S(=O)(=O)c2ccc(F)cc2)CC1
